Patent US7572768B2, “Methods for identifying compounds for regulating muscle mass or function using corticotropin releasing factor receptors” (priority 2001, dated 2009)
Ends that are not written are not given here.

Legend:
Format in all cases: in vivo
[1] = tested on: denervation-induced atrophy of skeletal muscle; experiment: mouse sciatic nerve denervation atrophy model; details: FIG. 5, day nine
Protocol: Legend: A—physiological saline (control); B—sauvagine (0.01 mg/kg)+theophylline; C—sauvagine (0.03 mg/kg)+theophylline; D—sauvagine (0.1 mg/kg)+theophylline; E—sauvagine (1.0 mg/kg)+theophylline; *—p≦0.05 compared to saline. Following denervation of the right sciatic nerve, male mice were injected subcutaneously in the midscapular region twice daily with sauvagine, at the doses indicated above or vehicle control (physiological saline) for nine days. Sauvagine was co-administered with 30 mg/kg theophylline. On day nine, the medial gastrocnemius muscle was removed and weighed to determine the degree of atrophy.
Legend: A—water (control); B—sauvagine (0.1 mg/kg/d); C—sauvagine (0.3 mg/kg/d); D—sauvagine (1.0 mg/kg/d); *—p≦0.05 compared to water. Following denervation of the right sciatic nerve, male mice were dosed with either sauvagine or vehicle control (physiological saline) by continuous infusion using an Alzet osmotic minipump at 5 μl/hr until the end of the experimental period (without additional theophylline). The daily delivered dose of sauvagine is indicated above. Minipump implantation was performed at the time of sciatic nerve denervation. On day nine the tibialis anterior muscle was removed and weighed to determine the degree of atrophy.
Legend: A—water (control); B—sauvagine (1 mg/kg/d); C—urocortin (1.0 mg/kg/d); *—p≦0.05 compared to water. Following denervation of the right sciatic nerve, male mice were dosed with the above indicated agents or vehicle control (physiological saline) by continuous infusion using an Alzet osmotic minipump at 5 μl/hr until the end of the experimental period (without additional theophylline). The daily delivered dose of the agents is indicated above. Minipump implantation was performed at the same time as the sciatic nerve denervation. On day nine the tibialis anterior muscle was removed and weighed to determine the degree of atrophy.
Legend: A-C—wild-type mice; D-F—CRF2R knockout mice. A and D—water (control); B and E—sauvagine (0.3 mg/kg/d); C and F—sauvagine (1.0 mg/kg/d); *—p≦0.05 compared to saline. Following denervation of the right sciatic nerve, female wild-type and CRF2R knockout mice were dosed with sauvagine or vehicle control by continuous infusion using an Alzet osmotic minipump at 5 μl/hr for nine days at the daily delivered dose indicated above. On day nine, the tibialis anterior muscle was removed and weighed to determine the degree of atrophy.
The sciatic nerve denervation atrophy model involves anesthetizing the animal followed by the surgical removal of a short segment of either the right or left sciatic nerve, e.g., in mice the sciatic nerve is isolated approximately at the midpoint along the femur and a 3-5 mm segment is removed. This denervates the lower hind limb musculature resulting in atrophy of these muscles. Typically, innervation to the biceps femoris is left intact to provide satisfactory motion of the knee for virtually normal ambulation. Typically, in untreated animals, muscle mass of the denervated muscles is reduced 30-50% ten days following denervation. Following denervation, test compounds are administered e.g., by injection or by continuous infusion, e.g., via implantation of an osmotic minipump (e.g., Alzet, Palo Alto, Calif.), to determine their effect on denervation induced skeletal muscle atrophy. At various times following denervation, the animals are euthanized and lower leg muscles are dissected rapidly from both the denervated and nondenervated legs, the muscles, cleaned of tendons and connective tissue, are weighed. The extent of atrophy in the affected muscles is analyzed, for example, by measuring muscle mass, muscle cross-sectional area, myofiber cross-sectional area or contractile protein content.

[2] = tested on: disuse-induced atrophy of skeletal muscle; experiment: mouse leg casting disuse atrophy model; details: male mice, 0.3 mg/kg s.c. twice daily + theophylline 30 mg/kg i.p., ten days
Protocol: (§1) Legend: A—physiological saline (control); B—theophylline; C—sauvagine (0.03 mg/kg)+theophylline; D—sauvagine (0.1 mg/kg)+theophylline; E—sauvagine (0.3 mg/kg)+theophylline; *—p≦0.05 compared to saline. Following casting of the right hind leg, male mice were injected subcutaneously in the midscapular region twice daily, with sauvagine or vehicle control (physiological saline) for ten days at the daily delivered dose indicated. Sauvagine was co-administered with twice daily intra-peritoneal dosing of the phosphodiesterase inhibitor theophylline (30 mg/kg). On day ten, the medial gastrocnemius and tibialis anterior muscles were removed and weighed to determine the degree of atrophy.
as §1, with “B—urocortin” for “B—theophylline; C—sauvagine (0.03 mg/kg)+theophylline; D—sauvagine (0.1 mg/kg)+theophylline; E—sauvagine”, “urocortin” for “sauvagine”, “days. Urocortin was administered” for “days”, “doses indicated in the description of FIGS. 6A and 6B. Urocortin” for “daily delivered dose indicated. Sauvagine”
Legend: A—non casted muscle control; B—casted muscle, saline control; C—casted muscle, sauvagine (0.3 mg/kg)+theophylline (30 mg/kg); *—p≦0.05 compared to saline. Following casting of the right hind leg, male mice were injected subcutaneously in the midscapular region twice daily, with either sauvagine or vehicle control (physiological saline) for ten days at the doses indicated above. Sauvagine was co-administered 30 mg/kg theophylline. On day ten, the EDL and soleus muscles were removed and absolute force and mass measurements taken to determine the degree of atrophy.
The leg casting disuse atrophy model involves casting one hind leg of an animal from the knee down through the foot. Typically, muscle mass is reduced 20-40% after ten days of casting. Following casting, test compounds are administered by injection or by continuous infusion via implantation of an osmotic minipump (e.g., Alzet, Palo Alto, Calif.) to determine their effect on leg casting induced skeletal muscle atrophy. At various times following leg casting, the extent of atrophy in the affected muscles is analyzed as described above for the denervation model.
The extensor digitorum longus (EDL) and soleus muscles are removed, tendon-to-tendon from the casted mouse leg. A silk suture is tied to each tendon of the isolated muscles and the muscles are placed into a plexiglass chamber filled with Ringer solution (137 mM sodium chloride, 24 mM sodium bicarbonate, 11 mM glucose, 5 mM potassium chloride, 1 mM magnesium sulfate, 1 mM sodium phosphate, 0.025 mM tubocurarine, all at pH 7.4 and oxygenated with 95% oxygen/5% carbon dioxide) constantly bubbled with 95% oxygen/5% carbon dioxide maintained at 25° C. Muscles are aligned horizontally between a servomotor lever arm (Model 305B-LR Cambridge Technology Inc., Watertown Mass., USA) and the stainless steel hook of a force transducer (Model BG-50; Kulite Semiconductor Products Inc., Leonia, N.J., USA) and field stimulated by pulses transmitted between two platinum electrodes placed longitudinally on either side of the muscle. Square wave pulses (0.2 ms duration) generated by a personal computer with a Labview board (Model PCI-MIO 16E-4), Labview Inc., Austin, Tex., USA) are amplified (Acurus power amplifier model A25, Dobbs Ferry, N.Y., USA) to increase titanic contraction. Stimulation voltage and muscle length (Lo) are adjusted to obtain maximum isometric twitch force. Maximum titanic force production (Po) is determined from the plateau of the frequency-force relationship.

skeletal muscle atrophy [3] = experiment: animal models of skeletal muscle atrophy (summary of FIGS. 1-9); details: theophylline administered alone in these atrophy models
Protocol: Theophylline was added to potentiate the duration and magnitude of action of the CRFR agonist therefore resulting in increased efficacy of these compounds. […] Statistical significance of the results was determined using ANCOVA (Douglas C. Montgomery, Design and Analysis of Experiments, John Wiley and Sons, New York (2nd ed. 1984)). Abbreviations used in FIGS. 1-9: g-gram; SEM-standard error of the mean.

skeletal muscle atrophy [4] = experiment: Example 13: prophylactic treatment of skeletal muscle atrophy in comatose subject; details: human 60 kg, slow i.v. infusion once each day, 5 ml of 12 mg/ml stock in 500 ml saline
Protocol: A human subject weighing 60 kg is admitted to the hospital in a comatose state. The subject is treated by this method to prevent atrophy of the skeletal muscle of the entire body due to disuse in the comatose state. Specifically, once each day while in the coma, the subject is administered, via slow intravenous infusion, approximately 500 ml of an aqueous solution that is prepared by addition of 5 ml of the following stock solution to 500 ml of sterile saline: […]

urocortin (DNPSLSIDLTFHLLRTLLELARTQSQRERAEQNRIIFDSV; ends and bridges not checked; UniProt P55089 83-122, looked up) [mammalian congener of urotensin, CRFR agonist (Bachem Biosciences, Inc.)]
hypertrophy of the non-denervated leg (tibialis anterior muscle) ([1]; 1.0 mg/kg/d by osmotic minipump): hypertrophy of the non-denervated leg was observed | denervation-induced atrophy of the tibialis anterior muscle (muscle weight) ([1]; male mice, 1 mg/kg/d continuous infusion by osmotic minipump, no theophylline): inhibit denervation-induced atrophy | disuse-induced atrophy of the tibialis anterior muscle (muscle weight) ([2]; FIG. 6A): inhibits disuse-induced atrophy | disuse-induced atrophy of the medial gastrocnemius muscle (muscle weight) ([2]; FIG. 6B): inhibits disuse-induced atrophy

Cn1c(=O)c2[nH]cnc2n(C)c1=O [Theophylline, theophylline]
effect on skeletal muscle atrophy (skeletal muscle atrophy [3]): had no effect

Urocortin-II (VILSLDVPIGLLRILLEQARYKAARNQAATNAQILAHV; listed as Mus musculus) [CRF analog]
skeletal muscle mass and function (skeletal muscle atrophy [4]): measurable preservation of skeletal muscle mass and function
